Data: the NIST ThermoML archive (doi:10.1021/je200369m)
Several values for one entry are separate records, joined by “and”; a condition that tells them apart may be missing. Equal entries are not always repeated. Numbers after ± are expanded uncertainties.

Conditions: for mass density: Fluid (supercritical or subcritical phases), Buoyancy - hydrostatic balance with magnetic suspension - two sinkers; for vapor or sublimation pressure: Liquid, Closed cell

C=C(F)C(F)(F)F [2,3,3,3-tetrafluoro-1-propene]
Conditions	mass density [kg/m3]
232.01 K, 1003.6 kPa	1297.66 ± 0.16
235.01 K, 1354.4 kPa	1290.57 ± 0.16
240.01 K, 1309.7 kPa	1276.93 ± 0.16
240.01 K, 5597.9 kPa	1288.72 ± 0.16
245 K, 5368.7 kPa	1275.09 ± 0.16
250 K, 2009.3 kPa	1251.5 ± 0.16
250 K, 9475.2 kPa	1273.53 ± 0.16
255 K, 5782.7 kPa	1249.79 ± 0.16
260 K, 1001.4 kPa	1219.36 ± 0.16
260 K, 9586.2 kPa	1248.32 ± 0.16
265 K, 3824.7 kPa	1215.48 ± 0.15
270 K, 1753.3 kPa	1192.46 ± 0.15
270 K, 7264.8 kPa	1214.11 ± 0.16
275 K, 4931.1 kPa	1190.99 ± 0.15
280 K, 1780.9 kPa	1161.43 ± 0.15
280 K, 8123.4 kPa	1189.71 ± 0.15
285 K, 4675.9 kPa	1160.07 ± 0.15
290 K, 1604.8 kPa	1127.36 ± 0.15
290 K, 7579.1 kPa	1158.85 ± 0.15
295 K, 4198.6 kPa	1126 ± 0.15
300 K, 1079.2 kPa	1087.77 ± 0.14
300 K, 6812.1 kPa	1124.85 ± 0.15
305 K, 3364.3 kPa	1086.43 ± 0.14
309.99 K, 5673.9 kPa	1085.35 ± 0.14
310 K, 1004 kPa	1047.05 ± 0.14
314.99 K, 2511.7 kPa	1041.01 ± 0.14
319.99 K, 553.9 kPa	26.402 ± 0.006
320 K, 973.2 kPa	51.726 ± 0.009
320 K, 4518 kPa	1040.05 ± 0.14
325 K, 1456.3 kPa	982.689 ± 0.13
329.99 K, 574 kPa	26.306 ± 0.006
330 K, 979.2 kPa	49.047 ± 0.009
330 K, 985.9 kPa	49.464 ± 0.009
330 K, 3108.2 kPa	981.791 ± 0.13
335 K, 1592.5 kPa	92.726 ± 0.014
335 K, 1798 kPa	932.524 ± 0.12
335 K, 4770.8 kPa	980.976 ± 0.13
340 K, 593.8 kPa	26.211 ± 0.006
340 K, 980.9 kPa	46.55 ± 0.008
340 K, 993.5 kPa	47.298 ± 0.008
340 K, 1640.5 kPa	92.612 ± 0.014
340 K, 1827.8 kPa	110.941 ± 0.017
340 K, 3191.5 kPa	931.599 ± 0.12

Conditions	vapor or sublimation pressure
250 K	133.03 ± 0.07 kPa and 133.37 ± 0.07 kPa
260 K	197.44 ± 0.08 kPa
270 K	283.41 ± 0.08 kPa and 283.03 ± 0.08 kPa and 283.48 ± 0.08 kPa
280 K	395.91 ± 0.1 kPa
290 K	538.95 ± 0.11 kPa and 539.38 ± 0.11 kPa and 539.42 ± 0.11 kPa
300 K	718.68 ± 0.12 kPa
309.99 K	938.57 ± 0.15 kPa
310 K	939.28 ± 0.15 kPa and 939.3 ± 0.15 kPa
312 K	989.09 ± 0.15 kPa
314 K	1040.9 ± 0.15 kPa
316 K	1094.4 ± 0.16 kPa
319.99 K	1206.8 ± 0.17 kPa and 1207 ± 0.17 kPa and 1206.4 ± 0.17 kPa
320 K	1207.6 ± 0.17 kPa and 1207.7 ± 0.17 kPa
330 K	1529 ± 0.19 kPa
